Reference: patent US20250145641A1, “FUSED BICYCLIC DERIVATIVE, PHARMACEUTICALLY ACCEPTABLE SALT, CRYSTAL FORM THEREOF AND PREPARATION METHOD THEREFOR” (JIANGSU HENGRUI PHARMACEUTICALS CO., LTD., priority 2021, published 2025)

Experiments:
AKT2 = target: T1, AKT2 (Homo sapiens, UniProt P31751); assay: AKT2 kinase activity inhibition (KinEASE-STK S3 HTRF kit); format: biochemical
T1 construct: purchased Invitrogen PV3184
Protocol: (§1) The mean inhibition of kinase and the IC50 value were measured using a NovoStar microplate reader (BMG, Germany).
(§2) The following methods were used to determine the inhibitory effect of the compound of formula I on the kinase activity of AKT1/AKT2/AKT3 in vitro. The experimental method is briefly described as follows:
(§3) The enzyme activity of AKT1 (Invitrogen, P2999), AKT2 (Invitrogen, PV3184), and AKT3 (Invitrogen, PV3185) was determined using a KinEASE-STK S3 kit (Cisbio, 62ST3PEC). Test compounds were each first subjected to 3-fold gradient dilution with DMSO from 500 μM to obtain a total of 11 concentrations. The 5× buffer in the kit was diluted to 1× buffer, and DTT (Sigma, 43816-10ML) and MgCl2 were added to make the buffer contain 1 mM DTT and 5 mM MgCl2. Compounds were each subjected to 20-fold dilution with 1× buffer for later use. […] The mixture was incubated at room temperature for 60 min, values of signals emitted at […] and 620 nm after excitation at 337 nm were measured by using an HTRF module of a multi-functional microplate detector (BMG Labtech, PHERAstar FS), and the ratio of the readings was multiplied by 10,000 to obtain a ratio value. Dose-response curves were drawn according to the concentration of the compounds and the ratio values by using Graphpad Prism software, and the IC50 values for the inhibitory activity of the compounds were calculated.

AKT3 = target: T2, AKT3 (Homo sapiens, UniProt Q9Y243); assay: AKT3 kinase activity inhibition (KinEASE-STK S3 HTRF kit); format: biochemical
T2 construct: purchased Invitrogen PV3185
T2 sequence (Q9Y243 whole entry): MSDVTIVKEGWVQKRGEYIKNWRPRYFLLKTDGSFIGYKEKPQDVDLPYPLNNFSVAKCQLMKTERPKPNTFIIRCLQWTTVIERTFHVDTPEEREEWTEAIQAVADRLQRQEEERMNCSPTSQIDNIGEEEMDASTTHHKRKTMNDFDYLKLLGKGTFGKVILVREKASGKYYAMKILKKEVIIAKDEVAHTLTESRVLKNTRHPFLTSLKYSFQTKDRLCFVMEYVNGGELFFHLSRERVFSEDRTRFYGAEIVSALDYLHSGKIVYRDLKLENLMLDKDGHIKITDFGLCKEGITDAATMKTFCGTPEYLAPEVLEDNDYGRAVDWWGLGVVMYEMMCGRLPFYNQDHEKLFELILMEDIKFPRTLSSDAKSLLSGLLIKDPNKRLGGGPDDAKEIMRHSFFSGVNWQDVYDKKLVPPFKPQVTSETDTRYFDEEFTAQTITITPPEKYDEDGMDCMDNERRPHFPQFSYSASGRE
Protocol: as §1, §2, §3

[1] = Pharmacokinetic test in nude mice, intragastric administration; format: in vivo, Balb/c nude mice; conditions: i.g., 50 or 100 mg/kg
Protocol: (§4) The drug concentration in the plasma of the test animals (Balb/c nude mice) at different time points after intragastric administration (i.g.) of the test compounds was determined by using an LC/MS/MS method. The pharmacokinetic performance of the compound of formula I in nude mice was studied and their pharmacokinetic profile was evaluated.
18 Balb/c nude mice, female, divided into 2 groups and purchased from Vital River Laboratory Animal Technology Co., Ltd.
A certain amount of compound was weighed out, and 99.8% (0.5% methylcellulose) was added into the compound, and then 0.2% Tween was added. The mixture was subjected to ultrasonic treatment to obtain a suspension, which was stirred for administration.
The nude mice were subjected to intragastric administration with a dose of 50 mg/kg or 100 mg/kg and an administration volume of 0.2 mL/10 g. […]
The content of the test compounds in the nude mice plasma after intragastric administration of different concentrations of the compound was determined: 20 μL of nude mouse plasma at each time point after administration was mixed with 50 μL of internal standard solution (camptothecin, 100 ng/mL) and 200 μL of acetonitrile, and the mixture was vortexed for 5 min and centrifuged for 10 min at 3700 rpm. […]

AKT1 = target: T3, AKT1 (Homo sapiens, UniProt P31749); assay: AKT1 kinase activity inhibition (KinEASE-STK S3 HTRF kit); format: biochemical
T3 construct: purchased Invitrogen P2999
T3 sequence (P31749 whole entry): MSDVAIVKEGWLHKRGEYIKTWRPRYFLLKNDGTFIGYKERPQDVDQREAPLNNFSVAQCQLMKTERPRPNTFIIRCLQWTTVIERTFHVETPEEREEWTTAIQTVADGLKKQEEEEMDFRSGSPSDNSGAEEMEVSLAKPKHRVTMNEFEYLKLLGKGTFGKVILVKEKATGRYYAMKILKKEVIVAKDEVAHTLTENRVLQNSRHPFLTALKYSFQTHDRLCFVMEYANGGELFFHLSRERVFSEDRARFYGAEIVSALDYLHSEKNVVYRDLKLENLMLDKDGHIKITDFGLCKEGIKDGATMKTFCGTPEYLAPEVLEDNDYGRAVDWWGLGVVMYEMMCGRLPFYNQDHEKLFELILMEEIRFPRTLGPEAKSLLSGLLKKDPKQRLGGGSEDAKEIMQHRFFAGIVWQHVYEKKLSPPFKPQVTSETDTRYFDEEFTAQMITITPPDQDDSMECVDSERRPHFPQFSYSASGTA
Protocol: as §1, §2, §3

[2] = Pharmacokinetic test in rats, injection (i.v.); format: in vivo; conditions: SD rats, 1 mg/kg
Protocol: as §4, with “(SD rats)” for “(Balb/c nude mice)”, “injection (i.v.)” for “intragastric administration (i.g.)”, “rats” for “nude mice”
8 SD rats, half male and half female, divided into 2 groups, purchased from Vital River Laboratory Animal Technology Co., Ltd.
A certain amount of the compound was weighed out, and 5% of DMSO, 5% of Tween 80, and 90% of normal saline were added to obtain a colorless and clear solution.
The rats were subjected to administration by injection with a dose of 1 mg/kg and an administration volume of 5 mL/kg.
The test compound was administered by injection to the rats, and 0.2 mL of blood was collected from the orbit before administration and 5 min, 0.25 h, 0.5 h, 1.0 h, 2.0 h, 4.0 h, 8.0 h, 11.0 h, and 24.0 h after administration. […]
The content of the test compounds in the rat plasma after administration by injection of different concentrations of the compound was determined: 25 μL of rat plasma at each time point after administration was mixed with 50 μL of internal standard solution (camptothecin, 100 ng/mL) and 200 μL of acetonitrile, and the mixture was vortexed for 5 min and centrifuged for 10 min at 3700 rpm. […]

T1 sequence (P31751 whole entry): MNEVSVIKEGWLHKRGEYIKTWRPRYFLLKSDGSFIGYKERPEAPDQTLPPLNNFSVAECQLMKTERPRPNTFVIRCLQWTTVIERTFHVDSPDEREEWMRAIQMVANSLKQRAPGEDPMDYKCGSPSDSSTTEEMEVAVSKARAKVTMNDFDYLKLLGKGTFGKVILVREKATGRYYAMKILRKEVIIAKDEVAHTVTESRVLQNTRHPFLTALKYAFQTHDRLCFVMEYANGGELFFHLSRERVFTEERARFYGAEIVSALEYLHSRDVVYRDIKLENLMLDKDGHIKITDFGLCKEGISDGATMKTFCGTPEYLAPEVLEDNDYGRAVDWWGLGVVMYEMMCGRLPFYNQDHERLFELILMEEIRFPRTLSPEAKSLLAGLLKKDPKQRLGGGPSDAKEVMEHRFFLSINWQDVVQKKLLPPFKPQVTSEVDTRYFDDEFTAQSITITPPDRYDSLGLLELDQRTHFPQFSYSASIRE

CC(C)NC[C@@H](C(=O)N1C2CCC1CN(c1ncnc3c1C(C)(C)C(=O)N3)C2)c1ccc(Cl)cc1 [Compound of formula I]
inhibitory effect on AKT2 enzyme (conclusion) (AKT2): good inhibitory effect
inhibitory effect on AKT3 enzyme (conclusion) (AKT3): good inhibitory effect
pharmacokinetic absorption (conclusion) [1]: good pharmacokinetic absorption
inhibitory effect on AKT1 enzyme (conclusion) (AKT1): good inhibitory effect
pharmacokinetics (conclusion) [2]: good pharmacokinetics
